Results on 26 compounds are retold here after patent publication US8530468B2 (Cancer Research Technology Limited, priority 2008, dated 2013).

Some results are limits rather than exact numbers.

This assay addresses T1, CHK1 (Homo sapiens, UniProt O14757).
T1 sequence (O14757 1-476): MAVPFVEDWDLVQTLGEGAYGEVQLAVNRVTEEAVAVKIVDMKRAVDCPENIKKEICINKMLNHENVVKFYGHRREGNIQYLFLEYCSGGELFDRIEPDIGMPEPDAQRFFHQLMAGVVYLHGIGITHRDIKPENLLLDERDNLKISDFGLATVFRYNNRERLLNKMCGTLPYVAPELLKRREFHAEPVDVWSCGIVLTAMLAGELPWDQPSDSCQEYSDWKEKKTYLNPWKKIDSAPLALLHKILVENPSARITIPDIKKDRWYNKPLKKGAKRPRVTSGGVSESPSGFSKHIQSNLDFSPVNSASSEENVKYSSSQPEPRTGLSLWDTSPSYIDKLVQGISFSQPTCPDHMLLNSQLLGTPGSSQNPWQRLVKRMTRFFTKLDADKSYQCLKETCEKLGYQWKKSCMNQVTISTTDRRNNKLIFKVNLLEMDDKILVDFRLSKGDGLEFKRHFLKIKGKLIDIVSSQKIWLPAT
Briefly: CHK1 kinase function inhibition (DELFIA assay, phosphorylation of CDC25C peptide). It is filed as biochemical. The settings on record: CHK1 1 nM, ATP 30 μM, 30 minutes at room temperature.
The term IC50 denotes the concentration needed to halve the response being measured. Read a high IC50 as lower potency. For the compound `Cn1cnc2cnc(Nc3cnc(C#N)c(OCC4CCNCC4)n3)cc21`, the IC50 is ≤ 1000 nM.

As for `Clc1cccc2cc(Nc3cncc(OCC4CCNCC4)n3)ncc12` [AA-005], the IC50 was 1000 to 10000 nM.

As for `CN1CCCC(COc2nc(Nc3cc4cccc(Cl)c4cn3)cnc2C#N)C1` (centres unmarked) [AA-009], the IC50 was ≤ 1000 nM.

`COc1cc(OC)c2cnc(Nc3cnc(C#N)cn3)cc2c1` [AA-011, 5-(6,8-Dimethoxyisoquinolin-3-ylamino)pyrazine-2-carbonitrile] displayed a 50% inhibitory concentration (IC50) of 1000 to 10000 nM.

As for `N#Cc1cnc(Nc2cc3cccc(Br)c3cn2)cn1` [AA-017, 5-(8-Bromoisoquinolin-3-ylamino)pyrazine-2-carbonitrile], the IC50 lay within 1000 to 10000 nM.

In the case of `N#Cc1cnc(Nc2cc3cc(Cl)ccc3cn2)cn1` [AA-018, 5-(6-Chloroisoquinolin-3-ylamino)pyrazine-2-carbonitrile], the half-inhibitory concentration (IC50) is 1000 to 10000 nM.

The compound `N#Cc1cnc(Nc2cc3cccc(-c4cc[nH]n4)c3cn2)cn1` [AA-019, 5-(8-(1H-pyrazol-3-yl)isoquinolin-3-ylamino)pyrazine-2-carbonitrile] showed an IC50 of 1000 to 10000 nM.

Compound `COc1cccc2cc(Nc3cnc(C#N)cn3)ncc12` [AA-021, 5-(8-methoxyisoquinolin-3-ylamino)pyrazine-2-carbonitrile] had an IC50 of 1000 to 10000 nM.

On to `Cc1cccc2cc(Nc3cnc(C#N)cn3)ncc12` [AA-024], for which the IC50 was 1000 to 10000 nM.

With `N#Cc1ncc(Nc2cc3cccc(NCCCN4CCOCC4)c3cn2)nc1OCC1CC1` [AA-028], the IC50 is ≤ 1000 nM.

`COc1nc(Nc2cc3cccc(NCCO)c3cn2)cnc1C#N` [AA-042]: the IC50 is ≤ 1000 nM.

Turning to `N#Cc1ncc(Nc2cc3cccc(NCCO)c3cn2)nc1OCC1CC1` [AA-045], the IC50 is ≤ 1000 nM.

`CC(C)CCOc1nc(Nc2cc3cccc(NCCO)c3cn2)cnc1C#N` [AA-046] showed an IC50 of 1000 to 10000 nM.

As to `N#Cc1ncc(Nc2cc3cccc(NCCO)c3cn2)nc1OCC1CCOC1` (centres unmarked) [AA-047], the IC50 is 1000 to 10000 nM.

For the compound `COc1nc(Nc2cc3ccccc3cn2)cnc1C#N` [AA-048], the concentration for half-maximal inhibition (IC50) was ≤ 1000 nM.

As to `CC(=O)Nc1cccc2cc(Nc3cnc(C#N)cn3)ncc12` [AA-062, N-(3-(5-Cyanopyrazin-2-ylamino)isoquinolin-8-yl)acetamide], the IC50 was ≤ 1000 nM.

Compound `COCCC(=O)Nc1cccc2cc(Nc3cnc(C#N)cn3)ncc12` [AA-063, N-(3-(5-Cyanopyrazin-2-ylamino)isoquinolin-8-yl)-3-methoxypropanamide] showed an IC50 of 1000 to 10000 nM.

With `CC(=O)Nc1cccc2cc(Nc3cnc(C#N)c(O[C@H](C)CN(C)C)n3)ncc12` [AA-064], the IC50 is ≤ 1000 nM.

For the compound `CCOC(=O)COc1nc(Nc2cc3ccccc3cn2)cnc1C#N` [AA-068, Ethyl 2-(3-cyano-6-(isoquinolin-3-ylamino)pyrazin-2-yloxy)acetate], the IC50 lay within 1000 to 10000 nM.

`N#Cc1ncc(Nc2cc3ccccc3cn2)nc1OCC(=O)O` [AA-069, 2-(3-Cyano-6-(isoquinolin-3-ylamino)pyrazin-2-yloxy)acetic acid]: the IC50 was in the range of 1000 to 10000 nM.

Take `N#Cc1cnc(Nc2cc3c(Br)ccc(Cl)c3cn2)cn1` [AA-070, 5-(5-Bromo-8-chloroisoquinolin-3-ylamino)pyrazine-2-carbonitrile]: the IC50 was in the range of 1000 to 10000 nM.

In the case of `N#Cc1cnc(Nc2cc3[nH]c(C4CC4)nc3cn2)cn1` [BB-001, 5-(2-Cyclopropyl-1H-imidazo[4,5-c]pyridin-6-ylamino)pyrazine-2-carbonitrile], the IC50 fell in the range of 1000 to 10000 nM.

In turn, `N#Cc1cnc(Nc2cc3[nH]c(-c4ccc(N5CCNCC5)cc4)nc3cn2)cn1` [BB-006] returned an IC50 of 1000 to 10000 nM.

Turning to `N#Cc1cnc(Nc2cc3[nH]c(CCC4CCNCC4)nc3cn2)cn1` [BB-011], the IC50 was ≤ 1000 nM.

As for `c1nc2cnc(Nc3cncc(OCC4CCNCC4)n3)cc2[nH]1` [BB-013], the IC50 was 1000 to 10000 nM.

Compound `N#Cc1cnc(Nc2cc3c(cn2)ncn3CCN)cn1` [BB-019, 5-(1-(2-Aminoethyl)-1H-imidazo[4,5-c]pyridin-6-ylamino)pyrazine-2-carbonitrile] had an IC50 of 1000 to 10000 nM.
